Patent publication US20080234276A1, “Heterocyclic Triazines as Hypoxic Selective Protein Kinase Inhibitors” (SENTINEL ONCOLOGY LIMITED, priority 2005, published 2008)

What was measured:
Assay type in all cases: biochemical
Arg (h) = biological target: T1, Arg (h) (Homo sapiens, UniProt P42684); assay: Arg (h) kinase assay (Upstate, 33P-ATP filtermat); settings: 100 uM of inhibitor; ATP 45 uM
T1 construct: purchased Upstate Ltd
Description: (§1) The compounds of the invention prepared in Examples 1-32 were tested for kinase inhibition against a range of common protein kinases. All kinase assays were conducted at Upstate Ltd, Gemini Crescent, Dundee Technology Park, Dundee, DD2 1SW, UK in accordance with its standard protocols as follows:
(§2) In a final reaction volume of 25 μl, Arg (h) (5-10 mU) is incubated with 8 mM MOPS pH 7.0, 0.2 mM EDTA, 50 μM EAIYAAPFAKKK, 10 mM MgAcetate and [[…]-33P-ATP] (specific activity approx. 500 cpm/pmol, concentration as required). The reaction is initiated by the addition of the MgATP mix. After incubation for 40 minutes at room temperature, the reaction is stopped by the addition of 5 μl of a 3% phosphoric acid solution. 10 μl of the reaction is then spotted onto a P30 filtermat and washed three times for 5 minutes in 75 mM phosphoric acid and once in methanol prior to drying and scintillation counting.
(§3) Data for compounds. ATP concentrations are: Arg=45 uM; abl=45 uM; AuroraA=15 uM; Chk1=90 uM; KDR=90 uM; P70S6=15 uM. Figures represent the % inhibition when tested at 100 uM of inhibitor.

Abl (h) = biological target: T2, Abl (h) (Homo sapiens, UniProt P00519); assay: Abl (h) kinase assay (Upstate, 33P-ATP filtermat); settings: 100 uM of inhibitor; ATP 45 uM
T2 construct: purchased Upstate Ltd
Description: as §1
as §2, with “Abl” for “Arg”
as §3

Aurora-A (h) = biological target: T3, Aurora-A (h) (Homo sapiens, UniProt O14965); assay: Aurora-A (h) kinase assay (Upstate, 33P-ATP filtermat); settings: 100 uM of inhibitor, ATP 15 uM; for inhibition at 100 µM: read-out: AuroraA (h) % inhibition
T3 construct: purchased Upstate Ltd
T3 sequence (O14965 1-403): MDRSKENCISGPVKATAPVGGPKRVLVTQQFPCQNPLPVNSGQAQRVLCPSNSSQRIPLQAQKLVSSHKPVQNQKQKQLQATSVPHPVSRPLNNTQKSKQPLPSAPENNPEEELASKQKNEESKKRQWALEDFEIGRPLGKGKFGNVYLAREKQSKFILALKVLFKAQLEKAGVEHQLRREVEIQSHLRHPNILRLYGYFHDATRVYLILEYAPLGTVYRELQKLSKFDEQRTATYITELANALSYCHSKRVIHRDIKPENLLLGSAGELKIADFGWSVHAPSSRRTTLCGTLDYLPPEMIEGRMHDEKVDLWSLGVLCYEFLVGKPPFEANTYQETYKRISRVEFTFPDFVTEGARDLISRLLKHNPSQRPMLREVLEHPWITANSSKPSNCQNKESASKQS
Description: as §1
as §2, with “μl, Aurora-A” for “μl, Arg”, “EDTA, 200” for “EDTA, 50”, “μM LRRASLG (Kemptide),” for “μM EAIYAAPFAKKK,”, “and […]-33P-ATP]” for “and [[…]-33P-ATP]”, “in 50” for “in 75”
as §3

KDR (h) = biological target: T4, KDR (h) (Homo sapiens, UniProt P35968); assay: KDR (h) kinase assay (Upstate, 33P-ATP filtermat); settings: 100 uM of inhibitor; ATP 90 uM
T4 construct: purchased Upstate Ltd
Description: as §1
as §2, with “KDR” for “Arg”, “0.33 mg/ml myelin basic protein,” for “50 μM EAIYAAPFAKKK,”
as §3

p70S6K (h) = biological target: T5, p70S6K (h) (Homo sapiens, UniProt P23443); assay: p70S6K (h) kinase assay (Upstate, 33P-ATP filtermat); settings: 100 uM of inhibitor, ATP 15 uM; for inhibition at 100 µM: read-out: P70S6 (h) % inhibition
T5 construct: purchased Upstate Ltd
Description: as §1
as §2, with “μl, p70S6K” for “μl, Arg”, “EDTA, 100” for “EDTA, 50”, “μM KKRNRTLTV,” for “μM EAIYAAPFAKKK,”
as §3

CHK1 (h) = biological target: T6, CHK1 (h) (Homo sapiens, UniProt O14757); assay: CHK1 (h) kinase assay (Upstate, 33P-ATP filtermat); settings: 100 uM of inhibitor; ATP 90 uM
T6 construct: purchased Upstate Ltd
T6 sequence (O14757 1-476): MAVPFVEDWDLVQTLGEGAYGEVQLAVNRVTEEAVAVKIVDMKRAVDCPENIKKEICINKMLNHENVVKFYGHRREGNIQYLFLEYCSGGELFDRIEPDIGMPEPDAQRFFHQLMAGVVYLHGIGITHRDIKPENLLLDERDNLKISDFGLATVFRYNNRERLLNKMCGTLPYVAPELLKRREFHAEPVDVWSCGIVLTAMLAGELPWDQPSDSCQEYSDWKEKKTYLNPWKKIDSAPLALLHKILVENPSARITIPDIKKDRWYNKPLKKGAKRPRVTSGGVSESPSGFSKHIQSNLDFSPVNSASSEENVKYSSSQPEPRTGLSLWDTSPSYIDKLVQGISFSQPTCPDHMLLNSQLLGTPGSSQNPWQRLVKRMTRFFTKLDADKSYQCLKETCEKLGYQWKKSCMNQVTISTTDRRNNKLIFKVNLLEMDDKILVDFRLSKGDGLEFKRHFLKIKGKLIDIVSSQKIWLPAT
Description: as §1
as §2, with “μl, CHK1” for “μl, Arg”, “EDTA, 200” for “EDTA, 50”, “μM […],” for “μM EAIYAAPFAKKK,”, “and […]-33P-ATP]” for “and [[…]-33P-ATP]”
as §3

T2 sequence (P00519 whole entry): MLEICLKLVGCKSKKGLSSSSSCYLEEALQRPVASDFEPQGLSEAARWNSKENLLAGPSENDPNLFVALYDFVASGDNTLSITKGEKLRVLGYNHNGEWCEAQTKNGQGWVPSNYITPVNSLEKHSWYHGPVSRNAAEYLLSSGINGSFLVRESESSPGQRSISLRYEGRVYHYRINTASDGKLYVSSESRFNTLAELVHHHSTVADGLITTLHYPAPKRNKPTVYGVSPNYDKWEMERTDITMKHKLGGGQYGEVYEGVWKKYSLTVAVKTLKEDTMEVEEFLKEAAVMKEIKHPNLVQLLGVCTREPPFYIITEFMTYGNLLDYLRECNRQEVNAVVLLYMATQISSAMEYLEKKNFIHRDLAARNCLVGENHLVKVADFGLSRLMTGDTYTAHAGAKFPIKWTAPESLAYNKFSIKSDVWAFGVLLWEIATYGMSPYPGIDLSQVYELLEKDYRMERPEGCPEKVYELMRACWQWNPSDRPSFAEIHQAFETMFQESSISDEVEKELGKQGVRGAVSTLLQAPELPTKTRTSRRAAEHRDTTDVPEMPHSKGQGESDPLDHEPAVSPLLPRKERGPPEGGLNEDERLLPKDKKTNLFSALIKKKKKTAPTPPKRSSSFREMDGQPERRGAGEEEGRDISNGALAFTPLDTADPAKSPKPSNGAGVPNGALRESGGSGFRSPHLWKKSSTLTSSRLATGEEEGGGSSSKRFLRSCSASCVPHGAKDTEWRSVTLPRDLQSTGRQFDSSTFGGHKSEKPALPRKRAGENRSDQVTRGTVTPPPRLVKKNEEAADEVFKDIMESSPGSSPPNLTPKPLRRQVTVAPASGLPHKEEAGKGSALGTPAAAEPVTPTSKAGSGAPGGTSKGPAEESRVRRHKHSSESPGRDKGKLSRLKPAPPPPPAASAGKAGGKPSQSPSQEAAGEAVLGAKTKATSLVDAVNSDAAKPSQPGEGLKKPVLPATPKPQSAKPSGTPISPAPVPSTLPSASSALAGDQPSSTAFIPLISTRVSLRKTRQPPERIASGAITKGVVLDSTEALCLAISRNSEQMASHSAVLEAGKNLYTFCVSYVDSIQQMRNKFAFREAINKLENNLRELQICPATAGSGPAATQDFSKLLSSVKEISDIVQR
T5 sequence (P23443 whole entry): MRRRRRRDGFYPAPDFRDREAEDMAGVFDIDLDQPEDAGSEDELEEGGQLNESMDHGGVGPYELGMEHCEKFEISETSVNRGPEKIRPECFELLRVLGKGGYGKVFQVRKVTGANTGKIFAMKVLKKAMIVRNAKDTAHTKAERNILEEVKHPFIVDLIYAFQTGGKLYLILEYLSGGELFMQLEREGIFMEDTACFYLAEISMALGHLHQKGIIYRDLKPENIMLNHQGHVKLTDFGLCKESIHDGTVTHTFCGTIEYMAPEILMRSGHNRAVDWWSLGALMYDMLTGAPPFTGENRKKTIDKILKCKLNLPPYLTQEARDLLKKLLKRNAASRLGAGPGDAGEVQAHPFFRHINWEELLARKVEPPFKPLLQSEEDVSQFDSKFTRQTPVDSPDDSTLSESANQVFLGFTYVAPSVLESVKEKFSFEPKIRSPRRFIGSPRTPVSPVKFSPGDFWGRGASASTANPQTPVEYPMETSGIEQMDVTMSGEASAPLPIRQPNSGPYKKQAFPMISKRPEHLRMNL
T1 sequence (P42684 whole entry): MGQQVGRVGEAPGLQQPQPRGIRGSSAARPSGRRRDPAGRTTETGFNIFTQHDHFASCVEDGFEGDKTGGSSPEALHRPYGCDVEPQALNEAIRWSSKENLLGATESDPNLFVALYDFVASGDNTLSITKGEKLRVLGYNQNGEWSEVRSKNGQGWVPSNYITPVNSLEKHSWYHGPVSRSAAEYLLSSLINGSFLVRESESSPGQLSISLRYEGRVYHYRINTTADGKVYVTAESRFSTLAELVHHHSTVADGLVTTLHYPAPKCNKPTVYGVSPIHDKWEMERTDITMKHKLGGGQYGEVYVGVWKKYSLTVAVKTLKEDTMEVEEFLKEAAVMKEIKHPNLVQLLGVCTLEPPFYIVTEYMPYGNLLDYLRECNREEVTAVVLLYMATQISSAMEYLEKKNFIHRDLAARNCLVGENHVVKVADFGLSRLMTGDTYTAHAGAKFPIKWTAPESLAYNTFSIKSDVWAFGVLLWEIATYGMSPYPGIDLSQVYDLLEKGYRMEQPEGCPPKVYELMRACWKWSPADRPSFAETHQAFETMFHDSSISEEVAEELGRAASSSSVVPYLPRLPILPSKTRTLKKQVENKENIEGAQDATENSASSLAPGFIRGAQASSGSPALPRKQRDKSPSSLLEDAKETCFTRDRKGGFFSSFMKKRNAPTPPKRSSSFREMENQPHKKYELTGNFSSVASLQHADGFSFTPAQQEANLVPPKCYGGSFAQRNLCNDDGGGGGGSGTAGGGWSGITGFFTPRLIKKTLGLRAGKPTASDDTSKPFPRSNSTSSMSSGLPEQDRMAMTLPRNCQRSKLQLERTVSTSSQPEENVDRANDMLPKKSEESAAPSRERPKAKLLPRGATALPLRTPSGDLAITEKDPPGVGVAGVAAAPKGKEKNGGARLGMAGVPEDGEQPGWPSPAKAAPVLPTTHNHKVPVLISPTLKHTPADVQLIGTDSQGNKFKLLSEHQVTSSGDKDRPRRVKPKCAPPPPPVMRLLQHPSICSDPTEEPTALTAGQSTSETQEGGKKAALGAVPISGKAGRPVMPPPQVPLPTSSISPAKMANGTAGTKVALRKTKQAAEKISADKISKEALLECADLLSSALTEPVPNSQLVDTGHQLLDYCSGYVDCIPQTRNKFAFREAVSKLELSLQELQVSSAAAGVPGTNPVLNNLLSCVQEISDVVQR
T4 sequence (P35968 20-1356): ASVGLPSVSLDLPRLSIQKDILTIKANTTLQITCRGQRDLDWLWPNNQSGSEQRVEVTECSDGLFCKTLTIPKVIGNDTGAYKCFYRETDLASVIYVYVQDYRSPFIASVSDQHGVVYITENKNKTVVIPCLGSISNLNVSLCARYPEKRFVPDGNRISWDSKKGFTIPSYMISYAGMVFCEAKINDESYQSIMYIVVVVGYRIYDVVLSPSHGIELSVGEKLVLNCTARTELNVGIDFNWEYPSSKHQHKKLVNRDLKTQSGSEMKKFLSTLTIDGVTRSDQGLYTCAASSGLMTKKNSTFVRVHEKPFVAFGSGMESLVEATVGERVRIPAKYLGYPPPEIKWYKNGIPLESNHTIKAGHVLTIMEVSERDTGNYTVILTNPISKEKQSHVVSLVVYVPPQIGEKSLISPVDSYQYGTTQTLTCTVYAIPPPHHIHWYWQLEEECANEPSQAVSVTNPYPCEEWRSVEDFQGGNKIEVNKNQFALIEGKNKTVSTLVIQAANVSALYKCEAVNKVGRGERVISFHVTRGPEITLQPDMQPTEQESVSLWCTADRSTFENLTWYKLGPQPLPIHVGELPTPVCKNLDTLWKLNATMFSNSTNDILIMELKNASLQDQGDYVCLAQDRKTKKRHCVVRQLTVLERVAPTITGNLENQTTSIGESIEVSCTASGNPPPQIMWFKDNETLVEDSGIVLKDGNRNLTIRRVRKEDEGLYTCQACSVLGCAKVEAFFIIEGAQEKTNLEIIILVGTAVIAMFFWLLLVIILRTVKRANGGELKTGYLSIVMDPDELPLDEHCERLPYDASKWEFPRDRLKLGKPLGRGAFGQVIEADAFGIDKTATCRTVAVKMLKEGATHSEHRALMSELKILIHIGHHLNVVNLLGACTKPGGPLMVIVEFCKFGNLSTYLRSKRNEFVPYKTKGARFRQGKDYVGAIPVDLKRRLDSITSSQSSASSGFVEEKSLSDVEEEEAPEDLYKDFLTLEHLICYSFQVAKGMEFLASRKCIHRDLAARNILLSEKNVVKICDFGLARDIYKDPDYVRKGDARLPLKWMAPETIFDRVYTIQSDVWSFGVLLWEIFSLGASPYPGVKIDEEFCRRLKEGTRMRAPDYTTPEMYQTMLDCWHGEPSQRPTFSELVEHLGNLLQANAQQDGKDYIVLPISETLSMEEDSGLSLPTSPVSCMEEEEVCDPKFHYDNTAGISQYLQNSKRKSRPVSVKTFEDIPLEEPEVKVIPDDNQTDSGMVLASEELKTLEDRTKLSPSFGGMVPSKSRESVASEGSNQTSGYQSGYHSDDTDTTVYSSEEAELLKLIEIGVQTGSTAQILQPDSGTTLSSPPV

c1ccc(-c2ccc3nnc(Nc4cccnc4)nc3c2)cc1 [Example 23, (6-Phenyl-benzo[1,2,4]triazin-3-yl)-pyridin-3-yl-amine]
inhibition at 100 µM (Arg (h)): 83%
inhibition at 100 µM (Abl (h)): 80%
inhibition at 100 µM (Aurora-A (h)): 68%

Nc1nnc2ccc(N3CCNCC3)cc2n1 [Example 26, 6-Piperazin-1-yl-benzo[1,2,4]triazin-3-ylamine]
inhibition at 100 µM (KDR (h)): 98%
inhibition at 100 µM (p70S6K (h)): 37%

c1ccc2nc(-c3cn[nH]c3)nnc2c1 [Example 13, 3-(1H-Pyrazol-4-yl)-benzo[1,2,4]triazine]
inhibition at 100 µM (KDR (h)): 80%
inhibition at 100 µM (p70S6K (h)): 92%
inhibition at 100 µM (CHK1 (h)): 13%
inhibition at 100 µM (Aurora-A (h)): 90%

Nc1nnc2cc(-c3ccn[nH]3)ccc2n1 [Example 14, 7-(2H-Pyrazol-3-yl)-benzo[1,2,4]triazin-3-ylamine]
inhibition at 100 µM (KDR (h)): 89%
inhibition at 100 µM (p70S6K (h)): 47%
inhibition at 100 µM (CHK1 (h)): 20%
inhibition at 100 µM (Aurora-A (h)): 81%

[O-][n+]1nc(-c2cc[nH]n2)nc2ccccc21 [Example 17, 3-(1H-Pyrazol-3-yl)-benzo[1,2,4]triazine 1-oxide]
inhibition at 100 µM (KDR (h)): 0%
inhibition at 100 µM (p70S6K (h)): 0%
inhibition at 100 µM (Aurora-A (h)): 39%

[O-][n+]1nc(Nc2cccnc2)nc2ccccc21 [Example 4, (1-Oxy-benzo[1,2,4]triazin-3-yl)-pyridin-3-yl-amine]
P70S6 (h) % inhibition (p70S6K (h)): 0%
Chk1 (h) % inhibition (CHK1 (h)): 14%
AuroraA (h) % inhibition (Aurora-A (h)): 64%

[O-][n+]1nc(-c2cn[nH]c2)nc2ccccc21 [Example 12, 3-(1H-Pyrazol-4-yl)-benzo[1,2,4]triazine 1-oxide]
inhibition at 100 µM (KDR (h)): 97%
inhibition at 100 µM (p70S6K (h)): 87%
inhibition at 100 µM (CHK1 (h)): 3%
inhibition at 100 µM (Aurora-A (h)): 69%

Nc1nc2cc(N3CCNCC3)ccc2[n+]([O-])n1 [Example 25, 1-Oxy-6-piperazin-1-yl-benzo[1,2,4]triazin-3-ylamine]
KDR (h) % inhibition (KDR (h)): 18%
P70S6 (h) % inhibition (p70S6K (h)): 43%

Clc1ccc2nnc(Nc3cccnc3)nc2c1 [Example 21, (6-Chloro-benzo[1,2,4]triazin-3-yl)-pyridin-3-yl-amine]
inhibition at 100 µM (Arg (h)): 84%
inhibition at 100 µM (Abl (h)): 76%
inhibition at 100 µM (Aurora-A (h)): 58%

Nc1nnc2ccc(OCCc3ccc(Cl)c(Cl)c3)cc2n1 [Example 30, 6-[2-(3,4-Dichloro-phenyl)-ethoxy]-benzo[1,2,4]triazin-3-ylamine]
inhibition at 100 µM (KDR (h)): 11%
inhibition at 100 µM (p70S6K (h)): 52%

Cc1cc(Nc2nc3ccccc3[n+]([O-])n2)n[nH]1 [Example 10, (5-Methyl-1H-pyrazol-3-yl)-(1-oxy-benzo[1,2,4]triazin-3-yl)-amine]
Chk1 (h) % inhibition (CHK1 (h)): 20%
AuroraA (h) % inhibition (Aurora-A (h)): 40%

Cl.Nc1nnc2ccc(OCC3CCNCC3)cc2n1 [Example 28, 6-(Piperidin-4-ylmethoxy)-benzo[1,2,4]triazin-3-ylamine.hydrochloride]
KDR (h) % inhibition (KDR (h)): 6%
P70S6 (h) % inhibition (p70S6K (h)): 47%

Cl.Nc1nc2cc(OCC3CCNCC3)ccc2[n+]([O-])n1 [Example 27, 1-Oxy-6-(piperidin-4-ylmethoxy)-benzo[1,2,4]triazin-3-ylamine.hydrochloride]
KDR (h) % inhibition (KDR (h)): 3%
P70S6 (h) % inhibition (p70S6K (h)): 62%

[O-][n+]1nc(Nc2cccnc2)nc2cc(Cl)ccc21 [Example 22, (6-Chloro-1-oxy-benzo[1,2,4]triazin-3-yl)-pyridin-3-yl-amine]
AuroraA (h) % inhibition (Aurora-A (h)): 82%

Nc1nc2cc(OCCc3ccc(Cl)c(Cl)c3)ccc2[n+]([O-])n1 [Example 29, 6-[2-(3,4-Dichloro-phenyl)-ethoxy]-1-oxy-benzo[1,2,4]triazin-3-ylamine]
KDR (h) % inhibition (KDR (h)): 0%
P70S6 (h) % inhibition (p70S6K (h)): 49%

CN(C)CCCOc1ccc(Cl)cc1NC(=O)Nc1nnc2ccccc2n1 [Example 9, 1-Benzo[1,2,4]triazin-3-yl-3-[5-chloro-2-(3-dimethylamino-propoxy)-phenyl]-urea]
inhibition at 100 µM (CHK1 (h)): 93%

Nc1nc2ccc(-c3ccn[nH]3)cc2[n+]([O-])n1 [Example 15, 1-Oxy-7-(2H-pyrazol-3-yl)-benzo[1,2,4]triazin-3-ylamine]
KDR (h) % inhibition (KDR (h)): 46%
P70S6 (h) % inhibition (p70S6K (h)): 29%
Chk1 (h) % inhibition (CHK1 (h)): 10%
AuroraA (h) % inhibition (Aurora-A (h)): 90%

c1ccc2nc(-c3cc[nH]n3)nnc2c1 [Example 16, 3-(1H-Pyrazol-3-yl)-benzo[1,2,4]triazine]
inhibition at 100 µM (KDR (h)): 17%
inhibition at 100 µM (p70S6K (h)): 10%
inhibition at 100 µM (Aurora-A (h)): 41%

O=C(Nc1ccc2nncnc2c1)Nc1cnccn1 [Example 18, 1-Benzo[1,2,4]triazin-6-yl-3-pyrazin-2-yl-urea]
inhibition at 100 µM (CHK1 (h)): 23%

c1ccc2nc(Nc3ccc(N4CCNCC4)nc3)nnc2c1 [Example 19, Benzo[1,2,4]triazin-3-yl-(6-piperazin-1-yl-pyridin-3-yl)-amine]
inhibition at 100 µM (Arg (h)): 95%
inhibition at 100 µM (Abl (h)): 89%
inhibition at 100 µM (Aurora-A (h)): 79%

[O-][n+]1nc(Nc2cccnc2)nc2cc(-c3ccccc3)ccc21 [Example 24, (1-Oxy-6-phenyl-benzo[1,2,4]triazin-3-yl)-pyridin-3-yl-amine]
AuroraA (h) % inhibition (Aurora-A (h)): 92%
